For assay [1], the system named is NG108-15 cells expressing α4β2-nAChRs. Description: Cell stress (ROS) assay, α4β2-nAChR-transfected differentiated NG108-15 cells treated with Aβ1-42. The note with it: for Aβ1-42-induced ROS, co-treatment with stabilized peptides: daily 100 nM with 100 nM Aβ1-42, FIG. 9B, p<0.05 vs. Aβ1-42 alone. It counts as cell-based, rodent. From the text: (§1) In Vitro Neuronal Models. The studies were, performed on the NG108-15 rodent hybrid neuroblastoma cell line and primary hippocampal neuron cultures. The cell line can be differentiated, yielding axonal neurites with presynaptic-like varicosities that have the ability to release acetylcholine via exocytosis in response to stimulation. […] The primary hippocampal neuron cultures provide a physiologically relevant model.
(§2) Neuroblestoma Clonal Cell Culture and Transfection. Rodent hybrid neuroblastoma NG108-15 cells were used as a model nerve cell system allowing reconstitution with defined target receptors for Aβ. The cells were cultured in Dulbecco's modified Eagle's medium (DMEM) containing 15% fetal bovine serum (FBS) and differentiated in the presence of reduced serum (1% FBS) and 1 mM dibutyryl cyclic AMP for 72 h, Expression vectors (pcDNA3.1) containing mouse sequences for α4 and β2 nAChR subunits (1:4 ratio respectively) were transiently transfected into the cells using FuGENE HD (ThernioFisher, catalog #PRE2311) for 48 h. Mock-transfected NG108-15 cells, exposed only to FuGENE HO and not plasmid DNA, were used as controls.
Cell Stress Assays. Cells were plated, differentiated and treated for 3 days poor to assay. Cell count and fluorescence intensity of reactive oxygen species (ROS)-positive cells were assessed as a means to measure cellular oxidative stress using an Image-IT® LIVE Green Reactive Oxygen Species Detection Kit. In brief, the cells were treated for three days for NG108-15 cultures end five or ten days for primary hippocampal neuronal cultures. The media was changed every day, thus replenishing with fresh Aβ every 24 h, unless otherwise noted. Thereafter, the cells were incubated with carboxy-H2DCFDA (component A) at 37° C. for 30 min. During the last 5 min of incubation, 2 μg/ml of HOECHST stain (component B) was added to assess, in parallel, the integrity of the cell nuclei. The cells were washed twice with HBS and visualized using an Olympus IX81 epifluorescence microscope at excitation/emission of 495) 529 nm (ROS) and 350/461 nm (HOECHST), respectively.

For assay [2], the system named is mock-transfected NG108-15 cells. Put plainly: Cell stress (ROS) assay, mock-transfected NG108-15 cells (absent nAChRs) treated with μM Aβ1-42. It counts as cell-based, rodent. The note with it: co-treatment with nM-μM concentrations and 1 μM Aβ1-42; FIG. 6A; p<0.0001.
Source text: as §1, §2
Cell Stress Assays. […] Cell count and fluorescence intensity of reactive oxygen species (ROS)-positive cells were assessed as a means to measure cellular oxidative stress using an Image-IT® LIVE Green Reactive Oxygen Species Detection Kit. […]

The subject of assay [3] is primary hippocampal neurons. Description: Cell stress (ROS) assay in primary hippocampal neuron cultures. It is filed as cell-based, mouse. The note with it: 1 μM with 1 μM Aβ1-42, 5 or 10 days; p<0.0001.
Source text: Hippocampal Neuron Culture. All animal procedures followed an tACUC-approved protocol in accordance with animal welfare guidelines, Hippocampal neuron cultures even prepared from neonatal mouse pups (0-2d old) of either gender (roughly equivalent numbers) obtained from established colonies of wild-type B6.SJL (background) mice. Following rapid decapitation, brains were removed into ice-cold Neurobasal A medium (NB) containing B-27 supplement, 5% fetal bovine serum and Gentamicin (serum NB). Hippocampi were then isolated under a stereomicroscope. The hippocampi were digested with papain (Worthington, catalog #35N16202) in Hanks with 10 mM cysteine at 37° C. for 15 mins. The preparations were washed by centrifugation in serum NB. The cells were dissociated using sequential trituration with polished Pasteur pipettes of decreasing diameter and collected by low-speed centrifugation. The dissociated cells were preplated in standard tissue culture dishes to remove adherent non-neuronal cells (glia; fibroblasts) for 10-15 mins. […]
Assay [4] has as its system NG108-15 cells expressing α4β2-nAChRs. Put plainly: Cell death (apoptosis) TUNEL assay, α4β2-nAChR-transfected NG108-15 cells. It is filed as cell-based, rodent. The note with it: nM co-treatment on day 1, 2 or 3 after start of daily Aβ1-42; FIG. 14A; p<0.0001. How it is done:
as §2
Cell Death (Apoptosis) Assay. Cells were plated, differentiated and treated for either 3 or 4 days prior to assay. Apoptotic cells were detected as DNA fragmentation by Click-IT TUNEL Alexa fluor 488. In brief, the cells were treated for four days, exchanging media each day. After the fourth day of treatment, the cells were fixed with freshly prepared 4% paraformaldehyde in PBS at room temperature for 20 min and permeabilized with Triton X-100 (0.25% in PBS) for another 20 min. The cultures were then washed twice and incubated with 50 μL of terminal deoxynucleotidyi transferase reaction buffer (Component A) for 10 min at room temperature. […]

In assay [5] the test system is mock-transfected NG108-15 cells. Description: Cell death (apoptosis) TUNEL assay, NG108-15 cells without nAChRs. It is filed as cell-based. The note with it: nM-μM co-treatment over four days with 1 μM Aβ1-42; FIG. 14B; trend of greater reduction at μM. How it is done: as §2
The subject of assay [6] is NG108-15 cells expressing α4β2-nAChRs. Description: Cell survival (daily cell counts), NG108-15 cells with α4β2-nAChRs. It is filed as cell-based, rodent. To be noted: 100 nM co-treatment with 100 nM Aβ1-42; FIG. 10A; p<0.0001. How it is done:
Neuroblestoma Clonal Cell Culture and Transfection. Rodent hybrid neuroblastoma NG108-15 cells were used as a model nerve cell system allowing reconstitution with defined target receptors for Aβ. […] Mock-transfected NG108-15 cells, exposed only to FuGENE HO and not plasmid DNA, were used as controls.
(§3) Cell Survival. Cell survival was determined by counting cells everyday for 7 or 10 days of treatment. For each condition, all cells in 5 random fields of view were counted and averaged. Percent cell death was calculated based on daily cell counts as a proportion of starting cell count numbers (i.e. day 0).

For assay [7], the system named is primary hippocampal neurons. Put plainly: Cell survival (cell counts), primary hippocampal neurons. It counts as cell-based, mouse. To be noted: 1 μM with 1 μM Aβ1-42; FIG. 10B; p<0.0001. How it is done:
as §3

The target in another assay is T1, α4β2-nAChRs (Mus musculus, UniProt O70174+Q9ERK7).
T1 construct: expressed in transfected cells; host or cells: differentiated NG108-15 rodent hybrid neuroblastoma cells, pcDNA3.1 vectors, transient transfection with FuGENE HD
Description: Ca2+ imaging (Fluo-4) in varicosities of NG108-15 cells expressing α4β2-nAChRs. It is filed as cell-based. To be noted: 100 nM; FIG. 13B. How it is done:
as §2
Ca^2+ Imaging Fluo-4, a Ca^2+ indicator dye, was loaded into cells on coverslips and visualization of [Ca^2+] was done via a Nikon PCM 2000 Cameleon AOTF confocal microscope. Each time-series was normalized to baseline fluorescence intensity at time zero (F/F0). After recording a baseline image series, each treatment was perfused over cells for 2.5 minutes or 15 minutes and quantification of relative fluorescence changes was analyzed through imageJ.

Where no end group is shown, it is not given here. [ ]: non-standard residue; d: D form.

Results on four substances are retold here after patent US11970521B2, “Neuroprotective beta amyloid core peptides and peptidomimetic derivatives” (priority 2016, dated 2024).

T1 sequence (O70174 31-629): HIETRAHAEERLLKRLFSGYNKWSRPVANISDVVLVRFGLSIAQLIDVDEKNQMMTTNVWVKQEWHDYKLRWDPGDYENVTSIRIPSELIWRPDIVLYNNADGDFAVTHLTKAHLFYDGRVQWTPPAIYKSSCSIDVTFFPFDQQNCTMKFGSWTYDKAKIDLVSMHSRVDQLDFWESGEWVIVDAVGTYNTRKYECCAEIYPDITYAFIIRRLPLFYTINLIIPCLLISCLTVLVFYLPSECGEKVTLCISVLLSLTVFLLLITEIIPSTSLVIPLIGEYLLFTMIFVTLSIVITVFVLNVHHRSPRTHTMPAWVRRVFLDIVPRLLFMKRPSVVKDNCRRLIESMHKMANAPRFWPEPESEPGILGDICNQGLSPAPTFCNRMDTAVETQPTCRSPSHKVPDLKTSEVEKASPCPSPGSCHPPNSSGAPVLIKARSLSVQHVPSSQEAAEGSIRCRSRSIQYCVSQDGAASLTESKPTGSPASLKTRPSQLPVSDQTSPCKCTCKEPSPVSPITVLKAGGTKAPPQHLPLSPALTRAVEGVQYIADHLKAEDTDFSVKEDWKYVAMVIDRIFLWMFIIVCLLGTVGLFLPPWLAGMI
T1 sequence (Q9ERK7 26-501): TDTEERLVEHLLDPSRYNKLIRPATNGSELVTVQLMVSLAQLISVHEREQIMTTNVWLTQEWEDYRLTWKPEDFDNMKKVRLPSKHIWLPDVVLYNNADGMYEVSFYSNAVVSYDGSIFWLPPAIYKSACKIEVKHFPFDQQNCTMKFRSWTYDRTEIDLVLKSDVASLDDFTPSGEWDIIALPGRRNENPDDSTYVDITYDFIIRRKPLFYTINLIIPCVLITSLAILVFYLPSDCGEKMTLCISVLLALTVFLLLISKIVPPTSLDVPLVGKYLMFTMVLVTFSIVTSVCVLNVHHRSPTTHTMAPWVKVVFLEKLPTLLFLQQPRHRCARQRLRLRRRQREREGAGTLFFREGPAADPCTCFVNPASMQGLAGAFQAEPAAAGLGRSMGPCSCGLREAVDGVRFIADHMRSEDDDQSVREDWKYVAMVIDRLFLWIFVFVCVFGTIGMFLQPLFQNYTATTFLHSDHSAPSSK

As for “Tyrosine-Glutamate-Valine-Histidine-Histidine-Glutamine [N-Aβcore]”, the “Aβ1-42-induced ROS, co-treatment or post-treatment (rescue)” value in assay [1] (nM concentrations, co-treatment or rescue for 3-, 2- or 1-day, 100 nM Aβ1-42, FIG. 5A, p<0.0001) was “reduced Aβ1-42-induced ROS back to baseline levels”. For the same substance, the “Aβ1-42-induced oxidative stress (ROS) in absence of nAChRs” value in assay [2] is reported as “reduced this oxidative stress compared to Aβ1-42 alone”. In addition, the “Aβ1-42-induced ROS in primary neurons, co-treatment” value in assay [3] was “reduced the levels of ROS down to untreated (baseline) levels”. Moreover, in assay [4], the “Aβ1-42-induced apoptosis (TUNEL staining)” value is “reduced apoptosis compared to Aβ1-42 alone”. The “Aβ1-42-induced DNA-fragmentation in absence of nAChRs” value in assay [5] is listed as “reduced DNA-fragmentation compared to Aβ1-42 alone”. Further, the “Aβ1-42-induced cell death at 7 days, co-treatment” value in assay [6] is given as “able to fully protect against Aβ1-42-induced cell death”. In addition, in assay [7], the “Aβ1-42-induced cell death over 10-day treatments, co-treatment” value was “protected primary hippocampal neurons against β1-42-induced cell death”.

For the substance “Capped-D-[Aβcore]: D-enantiomer N-Aβcore with N-terminal acetylation and C-terminal amidation (Ac-[dY][dE][dV][dH][dH][dQ]-NH2; SMILES CC(=O)N[C@H](Cc1ccc(O)cc1)C(=O)N[C@H](CCC(=O)O)C(=O)N[C@@H](C(=O)N[C@H](Cc1c[nH]cn1)C(=O)N[C@H](Cc1c[nH]cn1)C(=O)N[C@H](CCC(N)=O)C(N)=O)C(C)C)”, the “Aβ1-42-induced ROS, co-treatment with stabilized peptides” value in assay [1] is on record as “reduces ROS”. Besides, the “Average peak Ca2+ response relative to N-Aβcore” value with α4β2-nAChRs is given as “retains activity”.

Turning to “capped-N-Aβcore: N-Aβcore with N-terminus capped with an acetyl group and C-terminus with an amide group (Ac-YEVHHQ-NH2)”, the “Aβ1-42-induced ROS, co-treatment with stabilized peptides” value in assay [1] is “reduces ROS”. Besides, the “Average peak Ca2+ response relative to N-Aβcore” value with α4β2-nAChRs is recorded as “retained its potent activity”.

For “D-[Aβcore]: N-Aβcore converted from L-configuration to D-configuration for each amino acid ([dY][dE][dV][dH][dH][dQ])”, in assay [1], the “Aβ1-42-induced ROS, co-treatment with stabilized peptides” value is recorded as “reduces ROS”. Further, the “Average peak Ca2+ response relative to N-Aβcore” value in the assay with α4β2-nAChRs was “retains activity”.
